This note sets out measurements from PubChem BioAssay (NCI).

Among the test systems are A549 NSCLC; CCRF-CEM leukemia; COLO 205 colon; IGROV1 ovarian; NCI-H23 lung; SF-295 CNS; SF-539 CNS; SN12C renal; UACC-257 melanoma.
Holding throughout (experiment): NCI anticancer screen, dose series, 48 h

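All cell lines were grown in 96-well plates and treated with compound for 48 hours. GI50 marks 50% less growth. TGI: total growth inhibition.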

Turning to `NNC(=O)N/N=C1\CNC(=O)C(=O)C1c1nc2ccccc2s1` (centres undefined), the TGI in the test on A549 NSCLC, in the test on CCRF-CEM leukemia, in the test with COLO 205 colon, in the test on IGROV1 ovarian, in the test with NCI-H23 lung and with SF-295 CNS was greater than 100 µM each time. The TGI with SF-539 CNS, in the test with SN12C renal and in the test on UACC-257 melanoma was greater than 100 µM in each case.

For the molecule `Cc1c(C)c2ccc(OC(C)C(=O)O)cc2oc1=O` (centres undefined), the TGI in the test on A549 NSCLC, in the test on CCRF-CEM leukemia, with COLO 205 colon, in the test with IGROV1 ovarian, in the test on NCI-H23 lung and in the test on SF-295 CNS was greater than 100 µM each time. The TGI with SF-539 CNS, in the test on SN12C renal and with UACC-257 melanoma was greater than 100 µM throughout.

As to `C/C(CC(=O)Nc1cccc(Cl)c1C)=N\N=C(N)N`, the TGI in the test with A549 NSCLC, in the test with CCRF-CEM leukemia, in the test on COLO 205 colon, in the test with IGROV1 ovarian, in the test with NCI-H23 lung and with SF-295 CNS was greater than 100 µM throughout. Also, the TGI with SF-539 CNS, in the test on SN12C renal and with UACC-257 melanoma was greater than 100 µM throughout.

Turning to `CC(C)=CC(=O)CC(=O)C(=O)NCCNC(=O)C(=O)CC(=O)C=C(C)C`, the TGI in the test on A549 NSCLC, in the test with COLO 205 colon, in the test on IGROV1 ovarian, with NCI-H23 lung, with SF-295 CNS and with SF-539 CNS was greater than 50 µM throughout. Also, the TGI with SN12C renal and in the test on UACC-257 melanoma was greater than 50 µM each time.

For `CCOc1ccc(/C=C2/C(=O)N=C(N)N=C2N)cc1OCC`, the TGI in the test with A549 NSCLC, with CCRF-CEM leukemia, in the test on COLO 205 colon, in the test with IGROV1 ovarian, in the test with NCI-H23 lung and with SF-295 CNS was greater than 100 µM throughout. The TGI in the test with SN12C renal and in the test with UACC-257 melanoma was greater than 100 µM each time.

For the molecule `O=c1[nH]c(=O)n(C2CC(O)C(O)C(CO)O2)cc1F` (centres undefined), the TGI with A549 NSCLC, with CCRF-CEM leukemia, with COLO 205 colon, in the test with IGROV1 ovarian, with NCI-H23 lung and in the test with SF-295 CNS was greater than 100 µM throughout. Moreover, the TGI in the test with SF-539 CNS, in the test on SN12C renal and in the test on UACC-257 melanoma was greater than 100 µM each time.

As for `O=C(Nc1ccc(Cl)c(Cl)c1)C1C(=O)N(c2ccc(Cl)c(Cl)c2)C(=O)/C1=N\O` (centres undefined), the TGI with A549 NSCLC was greater than 100 µM; with CCRF-CEM leukemia it was greater than 100 µM; in the test with COLO 205 colon, 41.9 µM; in the test on IGROV1 ovarian, greater than 100 µM; in the test with NCI-H23 lung, greater than 100 µM; in the test with SF-295 CNS it was greater than 100 µM. The TGI in the test with SF-539 CNS, in the test on SN12C renal and in the test with UACC-257 melanoma was greater than 100 µM in each case.

As for `C1=C(c2ccccc2)C(OC2Oc3ccccc3C=C2c2ccccc2)Oc2ccccc21` (centres undefined), the TGI in the test on A549 NSCLC, in the test with CCRF-CEM leukemia, in the test with COLO 205 colon, in the test with IGROV1 ovarian, in the test with NCI-H23 lung and in the test on SF-295 CNS was greater than 100 µM in each case. Also, the TGI in the test on SN12C renal and with UACC-257 melanoma was greater than 100 µM each time.

In the case of `O=C(Nc1ccc(Br)cc1)Nc1cccc(Br)c1`, the GI50 in the test with COLO 205 colon is 4.1 µM; with IGROV1 ovarian it was 5.82 µM; in the test with SF-539 CNS it was 15.3 µM; with SN12C renal, 71.8 µM; with UACC-257 melanoma, greater than 100 µM. Further, the TGI with COLO 205 colon, in the test on IGROV1 ovarian, in the test with SF-539 CNS, with SN12C renal and in the test on UACC-257 melanoma was greater than 100 µM throughout.

Regarding `CC1(C)OC2OC(COC(=O)C(c3ccccc3)c3ccccc3)C3OC(C)(C)OC3C2O1` (centres undefined), the TGI with A549 NSCLC, in the test with CCRF-CEM leukemia, in the test with COLO 205 colon, with IGROV1 ovarian, in the test with NCI-H23 lung and with SF-295 CNS was greater than 100 µM in each case. Also, the TGI in the test with SF-539 CNS and with SN12C renal was greater than 100 µM throughout. The GI50 in the test on IGROV1 ovarian is greater than 100 µM.

On to `O=C(CCC(=O)C1Cc2ccccc2C1=O)Nc1cccc(C(F)(F)F)c1` (centres undefined), for which the TGI in the test on A549 NSCLC, with CCRF-CEM leukemia, in the test on COLO 205 colon, with IGROV1 ovarian, with NCI-H23 lung and with SF-295 CNS was greater than 100 µM each time. The TGI in the test with SF-539 CNS, with SN12C renal and in the test with UACC-257 melanoma was greater than 100 µM each time.

For the molecule `Cn1cc(NC(=O)c2cc(NC(=O)CCCCCCCC(=O)Nc3cc(C(=O)Nc4cc(C(=O)NCCC(=N)N)n(C)c4)n(C)c3)cn2C)cc1C(=O)NCCC(=N)N`, the TGI in the test with A549 NSCLC was 36.8 µM; in the test with CCRF-CEM leukemia, 86.1 µM; with COLO 205 colon it was 26 µM; in the test with IGROV1 ovarian it was 25.3 µM; in the test with NCI-H23 lung, 33.7 µM; in the test with SF-295 CNS, greater than 100 µM. Also, the TGI amounted to 33.1 µM in the test with SF-539 CNS, 41 µM in the test with SN12C renal and 23.8 µM in the test with UACC-257 melanoma.

In the case of `C1CCN2CC3CONC3C2C1` (centres undefined), the TGI with A549 NSCLC, in the test with CCRF-CEM leukemia, in the test on COLO 205 colon, in the test with IGROV1 ovarian, in the test with NCI-H23 lung and with SF-295 CNS was greater than 100 µM in each case. Also, the TGI in the test with SF-539 CNS, with SN12C renal and in the test with UACC-257 melanoma was greater than 100 µM each time.

`Nc1c(-c2nc3ccccc3s2)[n+]([O-])c2ccccc2[n+]1[O-]`: the TGI is greater than 100 µM with A549 NSCLC; greater than 100 µM with CCRF-CEM leukemia; greater than 100 µM in the test with COLO 205 colon; greater than 100 µM in the test on IGROV1 ovarian; 51.4 µM with NCI-H23 lung; 72.5 µM in the test with SF-295 CNS. Moreover, the TGI with SF-539 CNS was 78.8 µM; in the test with UACC-257 melanoma, greater than 100 µM.

Consider `O=C1c2ccoc2C(=O)c2oc(=O)ccc21`, for which the TGI in the test on A549 NSCLC was 42 µM; with CCRF-CEM leukemia, 15.7 µM; in the test with COLO 205 colon, greater than 55.4 µM; with IGROV1 ovarian, 40 µM; in the test on NCI-H23 lung, 4.01 µM; with SF-295 CNS, 31.5 µM. Besides, the TGI with SF-539 CNS was found to be 8.31 µM; with SN12C renal, 24.2 µM; with UACC-257 melanoma, 20.8 µM.

As for `Nc1c(C(=O)Nc2ccccc2O)[n+]([O-])c2ccccc2[n+]1[O-]`, the TGI was greater than 100 µM in the test with A549 NSCLC; greater than 100 µM with COLO 205 colon; greater than 100 µM with IGROV1 ovarian; 84.7 µM with NCI-H23 lung; greater than 100 µM in the test with SF-295 CNS; greater than 100 µM in the test with SF-539 CNS. For the same molecule, the results for the TGI in the test on SN12C renal and in the test on UACC-257 melanoma were greater than 100 µM and 44.6 µM, respectively.

Turning to `Nc1ncnc2sc(Nc3ccccc3)nc12`, the TGI with A549 NSCLC, in the test with COLO 205 colon, in the test on IGROV1 ovarian, in the test on NCI-H23 lung, in the test on SF-295 CNS and with SF-539 CNS was greater than 100 µM in each case. Moreover, the TGI in the test on SN12C renal and with UACC-257 melanoma was greater than 100 µM each time.

For `CC(C)(C)c1cc(C(OCCl)(C(F)(F)F)C(F)(F)F)c2c(c1)C(C(F)(F)F)(C(F)(F)F)OC21c2ccccc2C(=O)c2ccccc21`, the TGI with A549 NSCLC, with COLO 205 colon, in the test with NCI-H23 lung, in the test with SF-295 CNS, in the test on SF-539 CNS and in the test with SN12C renal was greater than 100 µM throughout. The molecule further had a TGI in the test on UACC-257 melanoma greater than 100 µM.

Take `COc1ccc2c3c(c(C(=O)O)oc13)C(CCC(=O)O)CC2` (centres undefined): the TGI in the test with A549 NSCLC, in the test on COLO 205 colon, in the test with IGROV1 ovarian, in the test on NCI-H23 lung, in the test with SF-295 CNS and in the test on SF-539 CNS was greater than 100 µM in each case. Further, the TGI in the test with SN12C renal and in the test with UACC-257 melanoma was greater than 100 µM in each case.

Regarding `CC1(C)CC(O)CC(C)(C)N1.CC1(C)CC(O)CC(C)(C)N1.CC1(C)CC(O)CC(C)(C)N1.CC1(C)CC(O)CC(C)(C)N1.Cl.[Ti]`, the GI50 in the test on CCRF-CEM leukemia, with COLO 205 colon, in the test on IGROV1 ovarian, in the test with NCI-H23 lung, with SF-295 CNS and in the test with SF-539 CNS was greater than 100 µM throughout. The GI50 in the test with SN12C renal and in the test with UACC-257 melanoma was greater than 100 µM in each case. In addition, the TGI in the test with CCRF-CEM leukemia, with COLO 205 colon, with IGROV1 ovarian, in the test on NCI-H23 lung, in the test on SF-295 CNS and in the test on SF-539 CNS was greater than 100 µM in each case. For the same molecule, the TGI with SN12C renal and in the test with UACC-257 melanoma was greater than 100 µM in each case.

Turning to `NC(=O)C(=O)Cc1nc2ccccc2s1`, the TGI in the test with A549 NSCLC, with CCRF-CEM leukemia, with COLO 205 colon, in the test on NCI-H23 lung, in the test with SF-295 CNS and in the test on SF-539 CNS was greater than 100 µM throughout. Also, the TGI with SN12C renal and with UACC-257 melanoma was greater than 100 µM throughout.

Consider `CC(=O)c1c(O)c2c([nH]c1=O)CCCC2`, for which the TGI in the test on A549 NSCLC was greater than 100 µM; in the test on CCRF-CEM leukemia, greater than 100 µM; in the test on COLO 205 colon it was greater than 100 µM; in the test with IGROV1 ovarian it was greater than 100 µM; with NCI-H23 lung it was greater than 100 µM; in the test on SF-295 CNS it was 39.7 µM. The molecule also came in with a TGI in the test on SN12C renal of 45.1 µM.
